Paper PMC6042085 (Proceedings of the National Academy of Sciences of the …, 2018)

Target: T1, PriSLX (Saccharolobus solfataricus, UniProt Q97Z83+Q97ZS7)
T1 sequence (Q97Z83 1-330): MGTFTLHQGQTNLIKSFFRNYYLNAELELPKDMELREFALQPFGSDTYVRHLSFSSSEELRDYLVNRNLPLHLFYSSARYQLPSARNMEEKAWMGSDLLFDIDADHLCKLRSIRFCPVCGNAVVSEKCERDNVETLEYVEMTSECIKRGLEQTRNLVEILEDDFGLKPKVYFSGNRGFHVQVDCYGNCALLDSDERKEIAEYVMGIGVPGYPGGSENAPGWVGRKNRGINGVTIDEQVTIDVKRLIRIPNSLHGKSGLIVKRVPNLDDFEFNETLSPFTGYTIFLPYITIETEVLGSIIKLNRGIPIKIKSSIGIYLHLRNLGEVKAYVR
T1 sequence (Q97ZS7 1-154): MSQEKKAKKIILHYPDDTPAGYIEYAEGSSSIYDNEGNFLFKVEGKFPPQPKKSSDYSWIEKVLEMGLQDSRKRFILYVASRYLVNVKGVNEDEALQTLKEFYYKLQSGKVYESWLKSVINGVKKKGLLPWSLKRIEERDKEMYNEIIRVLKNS
T1 sequence (Q9UWW1 1-307 partner): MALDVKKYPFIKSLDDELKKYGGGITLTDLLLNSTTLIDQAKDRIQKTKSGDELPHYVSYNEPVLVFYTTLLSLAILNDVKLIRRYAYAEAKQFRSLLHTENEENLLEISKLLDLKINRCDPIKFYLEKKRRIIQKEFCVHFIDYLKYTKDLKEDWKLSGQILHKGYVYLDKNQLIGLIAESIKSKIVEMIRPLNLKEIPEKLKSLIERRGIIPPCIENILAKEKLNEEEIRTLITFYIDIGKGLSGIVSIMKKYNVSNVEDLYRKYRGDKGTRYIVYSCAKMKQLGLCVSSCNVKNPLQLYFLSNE
Assay: primer synthesis, […]-labelled nucleotide, gel
Assay type: biochemical
Conditions: poly(dT) template; pH 6.0, 10 mM MnCl2, 10 µM ZnCl2, 75 °C

`Nc1ncnc2c1ncn2[C@H]1C[C@H](O)[C@@H](COP(=O)(O)OP(=O)(O)OP(=O)(O)O)O1` [dATP] was tested, and the “primer synthesis, 32P-labelled nucleotide, gel” value was “reactions with solely dATP as substrate primarily generate a lower yield”.
